The text below walks through data of publication PMC7195821 (Cell Discovery, 2020).

The subject of data set [1] is SARS-CoV-2. Put plainly: Antiviral activity against SARS-CoV-2 in Vero E6 cells, qRT-PCR of virus yield in supernatant at 48 h p.i. The settings on record: for EC50: Severe acute respiratory syndrome coronavirus 2, Vero C1008, 48 h, read-out: 50% maximal effective concentration (EC50); for anti-SARS-CoV-2 activity (in words): up to the highest drug concentrations. Format: cell-based.

Data set [2] can be described thus: Cytotoxicity by cell counting kit-8 (CCK8) assay. As to conditions: African green monkey. Background: Formazan colour is commonly taken as a measure of viable cells.
The test system of data set [3] is COVID-19 patients. Also noted: method as in PMID 32176772. The settings on record: retrospective study; cited from earlier work.
Data set [4] relates to SARS-CoV-2 virions. Nature of the data set: Intracellular trafficking: co-localization of virions with EEs or ELs by immunofluorescence. In kind it is cell-based. As to conditions: arbidol 10 μM, MOI 5.
For data set [5], the system named is SARS-CoV-2. Nature of the data set: Time-of-addition experiment, virus yield by qRT-PCR. Format: cell-based. The method, then: The antiviral efficacy was evaluated in Vero E6 cells by qRT-PCR analysis of virus yield at 48 h p.i. Data represent the mean ± standard deviation (SD) from two independent repeats. b, c Time-of-addition experiment of arbidol. Three experimental groups (Full-time, Entry, and Post-entry) were set up as described in the Supplementary Methods. At 16 h p.i., virus yield in the cell supernatant was quantified by qRT-PCR (b), and the expression of NP in infected cells was analyzed by western blots (c). […] The co-localization of virions with EEs or LEs was analyzed by immunofluorescence assays as described in the Supplementary Methods. e The portion of virions that co-localized with EEs or ELs in each group (n > 150 cells) was quantified by Image J. f Representative confocal microscopic images of virions (red) and LAMP1^+ ELs (green) in each group. The nuclei (blue) were stained with Hoechst 33258 dye. White arrows: virions co-localized with ELs; bars: 10 μm. […] For (d), statistical analysis was performed and calculated by unpaired two-tailed t test. *P < 0.05; ***P < 0.001; ns, not significant.
Arbidol was incubated with cells during the virus entry process (Entry), the post-entry stages (Post-entry), or the entire process of infection (Full-time) and progeny virus yield was quantified by qRT-PCR. […]
At 16 h p.i., virus production in the culture supernatants was quantified by qRT -PCR.

Data set [6] relates to SARS-CoV-2. Put plainly: Cytopathic effects (CPE) and immunofluorescence staining of infected cells. As to conditions: Vero E6 cells, 48 h p.i., MOI 0.05. In kind it is cell-based. (In general: Protection from cytopathic effect is a common read-out in antiviral testing.)
The conditions of data set [7]: humans, single oral administration of 800 mg; cited from earlier work.
For data set [8], the system named is SARS-CoV-2 binding. Nature of the data set: Virus binding assay on Vero E6 cells at 4 °C, qRT-PCR. In kind it is cell-based. As to conditions: arbidol 10 μM, 4 °C for 1 h, MOI 0.05, P < 0.001.
Data set [9] concerns SARS-CoV-2 NP expression. Put plainly: Time-of-addition experiment, viral NP expression by western blot. Format: cell-based. The settings on record: arbidol 10 μM, 16 h p.i. The procedure: The antiviral efficacy was evaluated in Vero E6 cells by qRT-PCR analysis of virus yield at 48 h p.i. Data represent the mean ± standard deviation (SD) from two independent repeats. b, c Time-of-addition experiment of arbidol. Three experimental groups (Full-time, Entry, and Post-entry) were set up as described in the Supplementary Methods. At 16 h p.i., virus yield in the cell supernatant was quantified by qRT-PCR (b), and the expression of NP in infected cells was analyzed by western blots (c). […] The co-localization of virions with EEs or LEs was analyzed by immunofluorescence assays as described in the Supplementary Methods. e The portion of virions that co-localized with EEs or ELs in each group (n > 150 cells) was quantified by Image J. f Representative confocal microscopic images of virions (red) and LAMP1^+ ELs (green) in each group. The nuclei (blue) were stained with Hoechst 33258 dye. White arrows: virions co-localized with ELs; bars: 10 μm. For (b) and (e), statistical analysis was performed using a one-way analysis of variance (ANOVA) with GraphPad Prism. For (d), statistical analysis was performed and calculated by unpaired two-tailed t test. *P < 0.05; ***P < 0.001; ns, not significant.
Arbidol was incubated with cells during the virus entry process (Entry), the post-entry stages (Post-entry), or the entire process of infection (Full-time) and progeny virus yield was quantified by qRT-PCR.
Viral RNA/DNA Extraction Kit; Takara, CAT No. 9766). Three microliter out of 30 μL total eluted RNA was used for cDNA synthesis with a PrimeScript RT Reagent Kit with gDNA Eraser (Takara, CAT No. RR047A). The qRT-PCR was performed with TB Green Premix Ex Taq II (Takara, CAT No. RR820A) on a StepOne Plus Real-time PCR system (AB). The primers used for qRT-PCR were RBD-qF1: […]
RBD-qR1:5’-[…]-3’. The experiments were performed in triplicate with two independent repeats and the data represent the mean ± SD from […]
Time-of-addition experiment […]
At 16 h p.i., virus production in the culture supernatants was quantified by qRT -PCR. […]

Data set [10] deals with influenza viruses. As to conditions: read-out: EC50 against different influenza viruses; cited from earlier work.
The test system of data set [11] is SARS-CoV. The settings on record: cited from earlier work.
The subject of data set [12] is SARS-CoV-2. As to conditions: cited from earlier work.

Where a name gives a salt, the structure may show the parent alone. Where only a bound is given, the exact number is not on record here.

A word on the CC50: it is the concentration giving 50% cytotoxicity. As for `[H]/N=C(\N)N[C@H]1C=C(C(=O)O)O[C@@H]([C@H](OC)[C@H](O)CO)[C@@H]1NC(C)=O` [Laninamivir], in [1], the EC50 was > 30 µM. The “anti-SARS-CoV-2 activity (in words)” value in data set [1] (Vero E6 cells) is “did not exhibit anti-SARS-CoV-2 activity”. In data set [2], the CC50 at 24 h is > 100 µM.
In general, inhibition refers to the percentage by which the read-out fell short of the control. A word on the Cmax: it is the maximum level reached in the sampled fluid or tissue. `CCOC(=O)c1c(CSc2ccccc2)n(C)c2cc(Br)c(O)c(CN(C)C)c12` [arbidol, Arbidol hydrochloride]: in data set [3], the “discharging rate and mortality rate of COVID-19 patients (in words)” value is “tendency to improve the discharging rate and decrease the mortality rate”. The “virions co-localized with EEs” value is given as 21.4% in data set [4] (30 min p.i., DMSO 24.0%); 4.1% in [4] (60 min p.i., DMSO 5.1%); 2.8% in data set [4] (90 min p.i., DMSO 3.2%). Moreover, the “virions co-localized with ELs” value in data set [4] (60 min p.i., DMSO 18.3%, P < 0.05) was 22.4%; in data set [4] (90 min p.i., DMSO ~13.5%, P < 0.001), ~ 23.6%. In addition, the inhibition at 10 µM in data set [5] (Severe acute respiratory syndrome coronavirus 2, 16 h, read-out: inhibition rate of virus yield, Post-entry) was ~55%. Also, the “inhibition of virus yield, Entry” value in data set [5] (arbidol 10 μM during virus entry, MOI 0.05, 16 h p.i.) is recorded as ~ 75%. In addition, the “viral NP expression and CPE due to SARS-CoV-2” value in data set [6] is “substantially reduced”. In addition, the Cmax in [7] was ~4.1 µM. For the same molecule, the “portion of unbound virions, % of the control group” value in data set [8] came to 156%. Also, the “expression level of viral NP (NP/GAPDH), % of the DMSO group, Entry” value in [9] (Entry stage) was 41%. In [9] (Full-time), the “expression level of viral NP (NP/GAPDH), % of the DMSO group, Full-time” value came to 13%. Further, in data set [9] (Post-entry stage), the “expression level of viral NP (NP/GAPDH), % of the DMSO group, Post-entry” value stood at 61%. The EC50 in data set [10] was 2.5 to 20 µM.
As for `CCC(CC)[C@H](NC(C)=O)[C@@H]1[C@H](O)[C@@H](C(=O)O)C[C@H]1N=C(N)N.O.O.O` [Peramivir, Peramivir Trihydrate], in data set [1] (Vero E6 cells), the “anti-SARS-CoV-2 activity (in words)” value is given as “did not exhibit anti-SARS-CoV-2 activity”.
For `CC(=O)N[C@H]1[C@H]([C@H](O)[C@H](O)CO)OC(C(=O)O)=C[C@@H]1N=C(N)N` [Zanamivir], in data set [1], the EC50 is > 100 µM. Besides, the “anti-SARS-CoV-2 activity (in words)” value in data set [1] (Vero E6 cells) is “did not exhibit anti-SARS-CoV-2 activity”. In addition, in data set [2], the CC50 at 24 h was > 100 µM. Also, in [11], the “inhibition of SARS-CoV (in words)” value is “ineffective”.
As to `NC(=O)c1nc(F)c[nH]c1=O` [favipiravir], the “efficacy against SARS-CoV-2 in vitro (in words)” value in data set [12] is reported as “showed a certain efficacy”.
As to `COC(=O)OCOc1c2n(ccc1=O)N([C@@H]1c3ccccc3SCc3c1ccc(F)c3F)[C@@H]1COCCN1C2=O` [Baloxavir, Baloxavir marboxil], in [1] (Vero E6 cells), the “anti-SARS-CoV-2 activity (in words)” value is listed as “failed to block SARS-CoV-2 infection”. Besides, the “inhibition of SARS-CoV-2 infection” value in data set [1] (at 50 μM, Vero E6 cells, 48 h p.i.) is on record as ~ 29%. In addition, the “inhibition of SARS-CoV-2 in vitro (in words)” value in [12] (ref 11 (Choy et al.)) was “failed to inhibit”.
